The target of one data set is HIV-1 RT (Human immunodeficiency virus type 1 group M subtype B, UniProt P03366). In words: Homopolymer HIV Reverse Transcriptase Assay: Inhibitor IC50 Determination. It counts as biochemical. The conditions noted are these: purified recombinant enzyme, poly(rA)/oligo(dT)16 template-primer, [3H] dTTP, 37° C. 30 min. The method, then:
Homopolymer HIV Reverse Transcriptase Assay: Inhibitor IC50 Determination
HIV-1 RT assay was carried out in 96-well Millipore MultiScreen MADVNOB50 plates using purified recombinant enzyme and a poly(rA)/oligo(dT)16 template-primer in a total volume of 50 μL. The assay constituents were 50 mM Tris/HCl, 50 mM NaCl, 1 mM EDTA, 6 mM MgCl2, 5 μM dTTP, 0.15 μCi [^3H] dTTP, 5 μg/ml poly (rA) pre annealed to 2.5 μg/ml oligo (dT)16 and a range of inhibitor concentrations in a final concentration of 10% DMSO. reactions were initiated by adding 4 nM HIV-1 RT and after incubation at 37° C. for 30 min, they were stopped by the addition of 50 μl ice cold 20%TCA and allowed to precipitate at 4° C. for 30 min. The precipitates were collected by applying vacuum to the plate and sequentially washing with 3×200 μl of 10% TCA and 2×200 μl 70% ethanol. Finally, the plates were dried and radioactivity counted in a Packard TopCounter after the addition of 25 μl scintillation fluid per well. IC50's were calculated by plotting % inhibition versus log10 inhibitor concentrations.
For `Cc1cc(C(=O)NC[C@@H](C)O)ccc1NC(=O)Cc1ccc(Cl)c(Oc2cc(Cl)cc(C#N)c2)c1F` [Compound I-10, 4-{2-[4-Chloro-3-(3-chloro-5-cyano-phenoxy)-2-fluoro-phenyl]-acetylamino}-N-((R)-2-hydroxy-propyl)-3-methyl-benzamide], the IC50 came to 18.3 nM.

Consider `Cc1cc(C(=O)NCCN(C)C)ccc1NC(=O)Cc1ccc(Cl)c(Oc2cc(Cl)cc(C#N)c2)c1F` [Compound I-5, 4-{2-[4-Chloro-3-(3-chloro-5-cyano-phenoxy)-2-fluoro-phenyl]-acetylamino}-N-(2-dimethylamino-ethyl)-3-methyl-benzamide; compound with trifluoro-acetic acid], for which the IC50 was 15.4 nM.

With `Cc1cc(C(=O)NCC(O)CO)ccc1NC(=O)Cc1ccc(Cl)c(Oc2cc(Cl)cc(C#N)c2)c1F` (stereo not shown) [Compound I-20, 4-{2-[4-Chloro-3-(3-chloro-5-cyano-phenoxy)-2-fluoro-phenyl]-acetylamino}-N-(2,3-dihydroxy-propyl)-3-methyl-benzamide], the IC50 came to 20.6 nM.

Turning to `Cc1cc(C(=O)NCCN2CCC(O)CC2)ccc1NC(=O)Cc1ccc(Br)c(Oc2cc(Cl)cc(C#N)c2)c1F` [Compound I-25, 4-{2-[4-Bromo-3-(3-chloro-5-cyano-phenoxy)-2-fluoro-phenyl]-acetylamino}-N-[2-(4-hydroxy-piperidin-1-yl)-ethyl]-3-methyl-benzamide], the IC50 worked out at 55.2 nM.

Take `Cc1cc(C(=O)NCCN2CCNCC2)ccc1NC(=O)Cc1ccc(Br)c(Oc2cc(Cl)cc(C#N)c2)c1F` [Compound I-30, 4-{2-[4-Bromo-3-(3-chloro-5-cyano-phenoxy)-2-fluoro-phenyl]-acetylamino}-3-methyl-N-(2-piperazin-1-yl-ethyl)-benzamide]: the IC50 is 20.9 nM.

Take `Cc1cc(C(=O)NCc2cccnc2)ccc1NC(=O)Cc1ccc(Cl)c(Oc2cc(Cl)cc(C#N)c2)c1F` [Compound I-15, 4-{2-[4-Chloro-3-(3-chloro-5-cyano-phenoxy)-2-fluoro-phenyl]-acetylamino}-3-methyl-N-pyridin-3-ylmethyl-benzamide; compound with trifluoro-acetic acid]: the IC50 is 16.6 nM.

Consider `Cc1cc(C(=O)NS(C)(=O)=O)ccc1NC(=O)Cc1ccc(Br)c(Oc2cc(Cl)cc(C#N)c2)c1F` [Compound I-36, 2-[4-Bromo-3-(3-chloro-5-cyano-phenoxy)-2-fluoro-phenyl]-N-(4-methanesulfonylaminocarbonyl-2-methyl-phenyl)-acetamide], for which the IC50 was found to be 4.6 nM.

System in a further data set: not given
Test: not given
Details: not given
Compound `CC(CN(C)C)NC(=O)c1ccc(NC(=O)Cc2ccc(Br)c(Oc3cc(Cl)cc(C#N)c3)c2F)c(Cl)c1` (stereo not shown) had a melting point of 190.1 °C.

Take `Cc1cc(C(=O)O)ccc1NC(=O)Cc1ccc(Cl)c(Oc2cc(Cl)cc(C#N)c2)c1F`: the melting point lay in the range of 287.1 to 289.1 °C.

`CC1CC[C@@H](C)N1CCNC(=O)c1ccc(NC(=O)Cc2ccc(Br)c(Oc3cc(Cl)cc(C#N)c3)c2F)c(Cl)c1` (stereo partly shown): the melting point fell in the range of 179 to 181 °C.

With `N#Cc1cc(Cl)cc(Oc2c(Br)ccc(CC(=O)Nc3ccc(C(=O)NC4(CN)CC4)cc3Cl)c2F)c1.O=C(O)C(F)(F)F`, the melting point was 148 to 152.4 °C.

As to `Cc1cc(C(=O)O)ccc1NC(=O)Cc1ccc(Br)c(Oc2cc(Cl)cc(C#N)c2)c1F`, the melting point is 270 to 270.8 °C.

In turn, `Cc1cc(C(=O)NCCN)ccc1NC(=O)Cc1ccc(Cl)c(Oc2cc(Cl)cc(C#N)c2)c1F` gave a melting point of 207.6 to 208.6 °C.

For `N#Cc1cc(Cl)cc(Oc2c(Br)ccc(CC(=O)Nc3ccc(C(=O)NC4(CO)CC4)cc3Cl)c2F)c1`, the melting point lay within 247.7 to 250.1 °C.

`Cc1cc(C(=O)NCCN(C)C)ccc1NC(=O)Cc1ccc(Br)c(Oc2cc(C#N)cc(C(F)F)c2)c1F` yielded a melting point of 205.6 to 206.6 °C.

`Cc1cc(C(=O)NCCN2CCOCC2)ccc1NC(=O)Cc1ccc(Br)c(Oc2cc(Cl)cc(C#N)c2)c1F` returned a melting point of 219.8 to 222 °C.

On to `Cc1cc(C(=O)NC[C@@H](C)O)ccc1NC(=O)Cc1ccc(Cl)c(Oc2cc(Cl)cc(C#N)c2)c1F` [Compound I-10, 4-{2-[4-Chloro-3-(3-chloro-5-cyano-phenoxy)-2-fluoro-phenyl]-acetylamino}-N-((R)-2-hydroxy-propyl)-3-methyl-benzamide], for which the melting point was in the range of 249 to 249.4 °C.

`CC1(NC(=O)c2ccc(NC(=O)Cc3ccc(Br)c(Oc4cc(Cl)cc(C#N)c4)c3F)c(Cl)c2)CCS(=O)(=O)C1` (stereo not shown): the melting point was 95 to 105 °C.

Regarding `CC(C)(CN)NC(=O)c1ccc(NC(=O)Cc2ccc(Br)c(Oc3cc(Cl)cc(C#N)c3)c2F)c(Cl)c1.Cl`, the melting point is 158 to 160.8 °C.

`Cc1cc(C(=O)NC2CCNC2)ccc1NC(=O)Cc1ccc(Br)c(Oc2cc(Cl)cc(C#N)c2)c1F` (stereo not shown) displayed a melting point of 117.8 to 120 °C.

`CC(CO)(CO)NC(=O)c1ccc(NC(=O)Cc2ccc(Br)c(Oc3cc(Cl)cc(C#N)c3)c2F)c(Cl)c1` returned a melting point of 69.1 °C.

With `N#Cc1cc(Cl)cc(Oc2c(Cl)ccc(CC(=O)Nc3ccc(C(=O)O)cc3Cl)c2F)c1`, the melting point fell in the range of 242 to 243 °C.

`CCN1CCCC1CNC(=O)c1ccc(NC(=O)Cc2ccc(Br)c(Oc3cc(Cl)cc(C#N)c3)c2F)c(Cl)c1` (stereo not shown) returned a melting point of 212 °C.

`Cc1cc(C(=O)NCCN2CCC(O)CC2)ccc1NC(=O)Cc1ccc(Br)c(Oc2cc(Cl)cc(C#N)c2)c1F` [Compound I-25, 4-{2-[4-Bromo-3-(3-chloro-5-cyano-phenoxy)-2-fluoro-phenyl]-acetylamino}-N-[2-(4-hydroxy-piperidin-1-yl)-ethyl]-3-methyl-benzamide]: the melting point fell in the range of 219.6 to 221.6 °C.

In turn, `Cc1cc(C(=O)NC[C@@H](C)O)ccc1NC(=O)Cc1ccc(Br)c(Oc2cc(C#N)cc(C(F)F)c2)c1F` showed a melting point of 225.5 to 228.8 °C.

In the case of `N#Cc1cc(Cl)cc(Oc2c(Br)ccc(CC(=O)Nc3ccc(C(=O)NCCN(CCO)CCO)cc3Cl)c2F)c1`, the melting point worked out at 100.1 °C.

`CC1(NC(=O)c2ccc(NC(=O)Cc3ccc(Br)c(Oc4cc(Cl)cc(C#N)c4)c3F)c(Cl)c2)CCNCC1.O=C(O)C(F)(F)F` returned a melting point of 130.5 °C.

`N#Cc1cc(Cl)cc(Oc2c(Br)ccc(CC(=O)Nc3ccc(C(=O)NCCN4CCCC4)cc3Cl)c2F)c1` came in with a melting point of 197.7 to 198.3 °C.

`N#Cc1cc(Cl)cc(Oc2c(Br)ccc(CC(=O)Nc3ccc(C(=O)NC(=N)N)cc3Cl)c2F)c1`: the melting point lay within 207 to 209 °C.

`CS(=O)(=O)CCNC(=O)c1ccc(NC(=O)Cc2ccc(Br)c(Oc3cc(Cl)cc(C#N)c3)c2F)c(Cl)c1` had a melting point of 235.5 °C.

Consider `CN1CCC(C)(NC(=O)c2ccc(NC(=O)Cc3ccc(Br)c(Oc4cc(Cl)cc(C#N)c4)c3F)c(Cl)c2)CC1`, for which the melting point came out at 96 °C.

`N#Cc1cc(Oc2c(Br)ccc(CC(=O)Nc3ccc(C(=O)NCCN4CCCC4)cc3Cl)c2F)cc(C(F)F)c1` displayed a melting point of 160 to 165.7 °C.

For `N#Cc1cc(Cl)cc(Oc2c(Br)ccc(CC(=O)Nc3ccc(C(=O)N[C@@H]4CS(=O)(=O)C[C@H]4O)cc3Cl)c2F)c1`, the melting point turned out to be 245 °C.

`Cc1cc(C(=O)O)ccc1NC(=O)Cc1ccc(Br)c(Oc2cc(C#N)cc(C(F)F)c2)c1F`: the melting point lay in the range of 267.9 to 268.1 °C.

As for `Cc1cc(C(=O)NCCN2CCNCC2)ccc1NC(=O)Cc1ccc(Br)c(Oc2cc(Cl)cc(C#N)c2)c1F` [Compound I-30, 4-{2-[4-Bromo-3-(3-chloro-5-cyano-phenoxy)-2-fluoro-phenyl]-acetylamino}-3-methyl-N-(2-piperazin-1-yl-ethyl)-benzamide], the melting point lay within 126.5 to 127 °C.

`Cc1cc(C(N)=O)ccc1NC(=O)Cc1ccc(Cl)c(Oc2cc(Cl)cc(C#N)c2)c1F` gave a melting point of 255.9 to 257.1 °C.

For the compound `Cc1cc(C(=O)NCCN(C)C)ccc1NC(=O)Cc1ccc(Cl)c(Oc2cc(Cl)cc(C#N)c2)c1F`, the melting point lay in the range of 213.3 to 216 °C.

For `Cc1cc(C(=O)NC(C)CN(C)C)ccc1NC(=O)Cc1ccc(Br)c(Oc2cc(Cl)cc(C#N)c2)c1F` (stereo not shown), the melting point fell in the range of 222 to 223.2 °C.

Consider `Cc1cc(C(=O)NCCN2CCS(=O)(=O)CC2)ccc1NC(=O)Cc1ccc(Br)c(Oc2cc(Cl)cc(C#N)c2)c1F`, for which the melting point lay within 168.1 to 170.1 °C.

The compound `Cc1cc(C(=O)NCCN2CCCC2)ccc1NC(=O)Cc1ccc(Br)c(Oc2cc(Cl)cc(C#N)c2)c1F` showed a melting point of 214.7 to 216.9 °C.

In turn, `Cc1cc(C(=O)NCCN2CCCC2)ccc1NC(=O)Cc1ccc(Br)c(Oc2cc(C#N)cc(C(F)F)c2)c1F` showed a melting point of 202.4 to 203.7 °C.

The compound `CN(C)CCNC(=O)c1ccc(NC(=O)Cc2ccc(Cl)c(Oc3cc(Cl)cc(C#N)c3)c2F)c(Cl)c1` returned a melting point of 202.8 to 203.6 °C.

On to `Cc1cc(C(=O)NS(C)(=O)=O)ccc1NC(=O)Cc1ccc(Br)c(Oc2cc(Cl)cc(C#N)c2)c1F` [Compound I-36, 2-[4-Bromo-3-(3-chloro-5-cyano-phenoxy)-2-fluoro-phenyl]-N-(4-methanesulfonylaminocarbonyl-2-methyl-phenyl)-acetamide], for which the melting point fell in the range of 244.9 to 246.7 °C.

The term IC50 denotes the point on the concentration scale where inhibition reaches its midpoint. One may read the melting point as the temperature of the solid-liquid transition.
